Experimental data reported in ChEMBL document CHEMBL1201862, “PubChem BioAssay data set” (2004).
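Interpolation was linear, between the two tested concentrations surrounding the appropriate level; five concentrations were tested over 48 hours in 96-well plates. GI50 is the concentration that inhibits growth by half.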 Active and inactive are the calls of the source. Rule as the data show it: active = GI50 up to about 1.1 µM and inactive = higher.

How the values were obtained:
Experiment in all cases: DTP human tumour cell line panel, 48 h
[1] = tested on: Malme-3M
[2] = tested on: OVCAR-3
[3] = tested on: UACC-257
[4] = tested on: MDA-MB-435
[5] = tested on: ACHN
[6] = tested on: PC-3
[7] = tested on: MDA-MB-231
[8] = tested on: SN12C
[9] = tested on: LOX IMVI
[10] = tested on: M14
[11] = tested on: K562
[12] = tested on: NCI/ADR-RES
[13] = tested on: Hs-578T
[14] = tested on: CAKI-1
[15] = tested on: SF-268
[16] = tested on: OVCAR-4
[17] = tested on: TK-10
[18] = tested on: MCF7
[19] = tested on: COLO 205
[20] = tested on: SK-MEL-5
[21] = tested on: SF-295
[22] = tested on: BT-549
[23] = tested on: KM12
[24] = tested on: SR
[25] = tested on: SW-620
[26] = tested on: HT-29
[27] = tested on: UACC-62
[28] = tested on: NCI-H522
[29] = tested on: MDA-N
[30] = tested on: HCT-116
[31] = tested on: U-251
[32] = tested on: HOP-92
[33] = tested on: A498
[34] = tested on: DU-145
[35] = tested on: A549
[36] = tested on: IGROV-1
[37] = tested on: NCI-H460
[38] = tested on: HOP-62
[39] = tested on: SNB-19
[40] = tested on: OVCAR-8
[41] = tested on: NCI-H226
[42] = tested on: SK-MEL-2
[43] = tested on: EKVX
[44] = tested on: UO-31
[45] = tested on: HCT-15
[46] = tested on: RPMI-8226
[47] = tested on: 786-0
[48] = tested on: MOLT-4
[49] = tested on: OVCAR-5
[50] = tested on: SK-MEL-28
[51] = tested on: T47D
[52] = tested on: RXF 393
[53] = tested on: NCI-H23
[54] = tested on: SK-OV-3
[55] = tested on: HCC 2998
[56] = tested on: HL-60
[57] = tested on: CCRF-CEM
[58] = tested on: SF-539
[59] = tested on: SNB-75

Measured: GI50

Nc1nc(O)c2c(n1)NCN(c1ccc(S(N)(=O)=O)cc1)C2
> 100 µM: [45]
inactive: [1] > 100 µM | [2] > 100 µM | [3] > 100 µM | [4] > 100 µM | [5] > 100 µM | [6] > 100 µM | [7] > 100 µM | [8] > 100 µM | [9] > 100 µM | [10] > 100 µM | [11] > 100 µM | [12] > 100 µM | [13] > 100 µM | [14] > 100 µM | [15] > 100 µM | [16] > 100 µM | [17] > 100 µM | [18] > 100 µM | [19] > 100 µM | [20] > 100 µM | [21] 85.9 µM | [22] > 100 µM | [23] > 100 µM | [24] > 100 µM | [25] > 100 µM | [26] > 100 µM | [27] > 100 µM | [28] > 100 µM | [29] > 100 µM | [30] > 100 µM | [31] > 100 µM | [32] > 100 µM | [33] > 100 µM | [34] > 100 µM | [35] > 100 µM | [36] > 100 µM | [37] > 100 µM | [38] 71 µM | [39] > 100 µM | [40] > 100 µM | [41] > 100 µM | [42] > 100 µM | [43] > 100 µM | [44] > 100 µM | [46] > 100 µM | [47] > 100 µM | [48] > 100 µM | [49] > 100 µM | [50] > 100 µM | [51] > 100 µM

O=C(O)CC(C(=O)O)C1c2ccccc2-c2ccccc21 (stereo not given)
> 100 µM: [45]
inactive: [1] 58.6 µM | [2] 35.5 µM | [3] > 100 µM | [4] 77.1 µM | [5] 92.9 µM | [6] > 100 µM | [7] > 100 µM | [8] > 100 µM | [9] 38.5 µM | [52] > 100 µM | [10] > 100 µM | [11] > 100 µM | [12] > 100 µM | [53] 92.3 µM | [13] > 100 µM | [14] 66.1 µM | [15] 79.6 µM | [16] > 100 µM | [17] > 100 µM | [18] 34.2 µM | [54] 66.8 µM | [19] 81.8 µM | [20] > 100 µM | [21] 45.1 µM | [22] > 100 µM | [23] 66.8 µM | [24] 37.5 µM | [25] > 100 µM | [26] > 100 µM | [27] > 100 µM | [28] 47.9 µM | [55] > 100 µM | [29] > 100 µM | [30] > 100 µM | [31] 39.3 µM | [33] > 100 µM | [34] 17.9 µM | [56] > 100 µM | [57] 32.4 µM | [35] 56.4 µM | [36] 70 µM | [37] 33.6 µM | [38] 38.2 µM | [39] 34 µM | [40] 67 µM | [41] > 100 µM | [42] > 100 µM | [43] > 100 µM | [44] > 100 µM | [46] 41.1 µM | [47] > 100 µM | [48] 48.2 µM | [50] > 100 µM | [51] 20.2 µM

CC(=O)C(=NNc1ccc(-n2c(C)nc3ccccc3c2=O)cc1)C(C)=O
> 100 µM: [45]
inactive: [2] > 100 µM | [3] > 100 µM | [4] > 100 µM | [58] > 100 µM | [5] > 100 µM | [6] > 100 µM | [7] > 100 µM | [8] > 100 µM | [9] > 100 µM | [10] > 100 µM | [11] > 100 µM | [12] > 100 µM | [53] > 100 µM | [13] > 100 µM | [14] > 100 µM | [15] > 100 µM | [59] > 100 µM | [17] > 100 µM | [18] > 100 µM | [54] > 100 µM | [19] > 100 µM | [20] 11.7 µM | [21] > 100 µM | [22] > 100 µM | [23] 55 µM | [24] > 100 µM | [25] > 100 µM | [26] > 100 µM | [27] > 100 µM | [29] > 100 µM | [30] > 100 µM | [31] > 100 µM | [32] > 100 µM | [33] > 100 µM | [34] > 100 µM | [56] > 100 µM | [57] > 100 µM | [35] > 100 µM | [36] > 100 µM | [37] > 100 µM | [38] > 100 µM | [39] > 100 µM | [40] > 100 µM | [41] 80.2 µM | [42] > 100 µM | [43] > 100 µM | [44] > 100 µM | [46] 30 µM | [47] > 100 µM | [48] 22.9 µM | [49] > 100 µM | [50] > 100 µM | [51] > 100 µM
